Laboratory results as given in patent US20250092065A1, “2-(INDAZOL-5-YL)-6-(PIPERIDIN-4-YL)-1,7-NAPHTHYRIDINE DERIVATIVES AND RELATED COMPOUNDS AS MODULATORS FOR SPLICING NUCLEIC ACIDS AND FOR THE TREATMENT OF PROLIFERATIVE DISEASES” (REMIX THERAPEUTICS INC., priority 2022, published 2025).
Structures can show the parent of a compound that is named as a salt. Where two headings read alike, the source gives them in different places.

How the values were obtained:
[1] = tested on: MYB mRNA; experiment: RT-qPCR splicing assay, MYB mRNA canonical (CJ) and alternative (AJ) junction; assay type: cell-based, human; details: Homo sapiens; for AC50: MYB alternative junction mRNA, read-out: MYB AJ (increase in AJ mRNA, AC50)
Procedure, shortened: (§1)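 Canonical and alternative-exon junction isoforms were quantified by RT-qPCR in cell lysates, with ΔCt against a housekeeper (GAPDH/GUSB/PPIA), then ΔΔCt vs DMSO, converted to 2^(−ΔΔCt) and percent response. K562 or A673 cells were exposed for 24 h to 11 concentrations (3-fold, top final 10 uM).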

[2] = tested on: SMN2 mRNA; experiment: RT-qPCR splicing assay, SMN2 mRNA; assay type: cell-based, human; details: Homo sapiens, canonical junction qPCR panel, Table 4; read-out: SMN2 IC50 (decrease in CJ mRNA levels)
Procedure, shortened: as §1

[3] = tested on: MYB; experiment: HiBiT protein abundance assay, MYB (K562 HiBiT knock-in); assay type: cell-based, human; details: HiBiT knock-in K562 cells, 24 hours, top dose 10 μM
Procedure, shortened: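 Tagged-protein levels were measured as HiBiT/LgBiT luminescence in lysed K562 knock-in cells exposed to serially diluted compound (up to 10 μM final) for 24 hours. A four-parameter logistic regression of control-normalized signal yielded the IC50.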

[4] = tested on: K562 cells; experiment: Cell Titer Glo 2.0 cell viability (toxicity) assay, K562; details: 500 cells/well, 72 hours
[5] = MYB canonical junction mRNA, RT-qPCR, read-out: MYB CJ (decrease in CJ mRNA levels, IC50)
[6] = canonical junction qPCR panel, Table 4, read-out: MYB IC50 (decrease in CJ mRNA levels)

| SMILES | AC50 ([1]; RT-qPCR) [µM] | IC50 [1, 5] [µM] | IC50 [1, 6] [µM] | IC50 [2] [µM] | IC50 [3] [µM] | Effect of Exemplary Compounds on Cell Viability, K562 [4] |
| --- | --- | --- | --- | --- | --- | --- |
| CNC(=O)c1nc(-c2cc3cn(C)nc3cc2O)nc2ccc(N3CCC(N(C)C)CC3)cc12 [Compound 742, 6-[4-(dimethylamino)piperidin-1-yl]-2-(6-hydroxy-2-methylindazol-5-yl)-N-methylquinazoline-4-carboxamide] | 0.1 to 1 | 0.1 to 1 | 0.1 to 1 | < 0.1 | 0.1 to 1 | A (A represents <100 nM) |
| C[C@@H]1CN(c2ccc3nc(-c4cc5cn(C)nc5c(F)c4O)ncc3c2)C[C@H](C)N1 [Compound 743, 5-{6-[(3R,5S)-3,5-dimethylpiperazin-1-yl]quinazolin-2-yl}-7-fluoro-2-methylindazol-6-ol] | > 10 | 1 to 10 | 1 to 10 | 1 to 10 | 1 to 10 | C (C represents 1000-9999 nM) |
| C[C@H]1CN(c2ccc3nc(-c4cc5cn(C)nc5c(F)c4O)ncc3c2)C[C@H](C)N1 [Compound 744, 5-{6-[(3S,5S)-3,5-dimethylpiperazin-1-yl]quinazolin-2-yl}-7-fluoro-2-methylindazol-6-ol] | < 0.1 | < 0.1 | < 0.1 | < 0.1 | < 0.1 | A (A represents <100 nM) |
| C[C@@H]1CN(c2ccc3nc(-c4cc5cn(C)nc5c(F)c4O)ncc3c2)C[C@@H](C)N1 [Compound 745, 5-{6-[(3R,5R)-3,5-dimethylpiperazin-1-yl]quinazolin-2-yl}-7-fluoro-2-methylindazol-6-ol] | < 0.1 | < 0.1 | < 0.1 | < 0.1 | < 0.1 | A (A represents <100 nM) |
| CN[C@@H]1CCN(c2cc3c(Cl)cc(-c4cc5cn(C)nc5c(C)c4O)nc3cc2C)C1 [Compound 748, 5-{4-chloro-7-methyl-6-[(3R)-3-(methylamino)pyrrolidin-1-yl]quinolin-2-yl}-2,7-dimethylindazol-6-ol] | 1 to 10 | 0.1 to 1 | 0.1 to 1 | 0.1 to 1 | 0.1 to 1 | B (B represents 100-1000 nM) |
| CN[C@H]1CCN(c2cc3c(Cl)cc(-c4cc5cn(C)nc5c(C)c4O)nc3cc2C)C1 [Compound 749, 5-{4-chloro-7-methyl-6-[(3S)-3-(methylamino)pyrrolidin-1-yl]quinolin-2-yl}-2,7-dimethylindazol-6-ol] | 0.1 to 1 | 0.1 to 1 | 0.1 to 1 | < 0.1 | 0.1 to 1 | B (B represents 100-1000 nM) |
| Cn1cc2cc(-c3ncc4cc(N5CCC(N6CCC6)CC5)ccc4n3)c(O)c(F)c2n1 [Compound 750, 5-{6-[4-(azetidin-1-yl)piperidin-1-yl]quinazolin-2-yl}-7-fluoro-2-methylindazol-6-ol] | 0.1 to 1 | < 0.1 | < 0.1 | < 0.1 | 0.1 to 1 | B (B represents 100-1000 nM) |
| C[C@@H]1CN(c2ccc3nc(-c4cc5cn(C)nc5cc4O)ncc3c2)C[C@H](C)N1 [Compound 751, 5-{6-[(3R,5S)-3,5-dimethylpiperazin-1-yl]quinazolin-2-yl}-2-methylindazol-6-ol hydrochloride] | 0.1 to 1 | 0.1 to 1 | 0.1 to 1 | < 0.1 | 0.1 to 1 | B (B represents 100-1000 nM) |
| C[C@H]1CN(c2ccc3nc(-c4cc5cn(C)nc5cc4O)ncc3c2)C[C@H](C)N1 [Compound 752, 5-{6-[(3S,5S)-3,5-dimethylpiperazin-1-yl]quinazolin-2-yl}-2-methylindazol-6-ol] | < 0.1 | < 0.1 | < 0.1 | < 0.1 | < 0.1 | B (B represents 100-1000 nM) |
| C[C@@H]1CN(c2ccc3nc(-c4cc5cn(C)nc5cc4O)ncc3c2)C[C@@H](C)N1 [Compound 753, 5-{6-[(3R,5R)-3,5-dimethylpiperazin-1-yl]quinazolin-2-yl}-2-methylindazol-6-ol] | 0.1 to 1 | 0.1 to 1 | 0.1 to 1 | < 0.1 | 0.1 to 1 | A (A represents <100 nM) |
| CCN(CC)C1CCN(c2ccc3nc(-c4cc5cn(C)nc5c(F)c4O)ncc3c2)CC1 [Compound 756, 5-{6-[4-(diethylamino)piperidin-1-yl]quinazolin-2-yl}-7-fluoro-2-methylindazol-6-ol] | 0.1 to 1 | 0.1 to 1 | 0.1 to 1 | < 0.1 | 0.1 to 1 | B (B represents 100-1000 nM) |
